For the series, the target named is MALAT1. Particulars: ASO, A431, 0.005 µM.

“And” between values parts separate entries of the source, which are not always exact repeats. Equal values may be shown once. After the bases stand the sugars from the 5' end (letter, count) and the backbone: PS all phosphorothioate, else s phosphorothioate and o phosphodiester by linkage. Methylation of C is not given here. k = constrained ethyl (cEt); d = 2'-deoxy (DNA)

As to TCTGTTATGTTCACCT (sugars k3 d10 k3, PS), the target mRNA inhibition stood at 52%.

In the case of AAACTTATCTGCGGTT (sugars k3 d10 k3, PS), the target mRNA inhibition was 19%.

In the case of AGCACGGGCTGTCTGC (sugars k3 d10 k3, PS), the target mRNA inhibition turned out to be 7%.

CTAAGAGACATTCAAG (sugars k3 d10 k3, PS): the target mRNA inhibition is 27%.

For the sequence TTTCCTCAAGCTCCGC (sugars k3 d10 k3, PS), the target mRNA inhibition is 54%.

On to TTTACACCTCAGTACG (sugars k3 d10 k3, PS), for which the target mRNA inhibition worked out at 35%.

Regarding CCCACAGGAACAAGTC (sugars k3 d10 k3, PS), the target mRNA inhibition turned out to be 14%.

GCGGTTTCCTCAAGCT (sugars k3 d10 k3, PS): the target mRNA inhibition was 20%.

Regarding CCACTTGATCCCAACT (sugars k3 d10 k3, PS), the target mRNA inhibition is 47%.

As for GGCAAAAAGTAGTTCT (sugars k3 d10 k3, PS), the target mRNA inhibition is 31%.

In the case of ACTGCATTTACTTGCC (sugars k3 d10 k3, PS), the target mRNA inhibition worked out at 8%.

In the case of TCCTGAAAGTGCTCAC (sugars k3 d10 k3, PS), the target mRNA inhibition is -7%.

As to TCCCTAACATGCAATA (sugars k3 d10 k3, PS), the target mRNA inhibition came out at 30%.

In the case of GTTAACAATTTGCAGG (sugars k3 d10 k3, PS), the target mRNA inhibition stood at 40%.

For CCTTCGGTTTAATCTC (sugars k3 d10 k3, PS), the target mRNA inhibition is 61% and 58%.

On to TTCTTCGCCTTCCCGT (sugars k3 d10 k3, PS), for which the target mRNA inhibition is 66% and 49%.

With GTAAAAACAGGTCATC (sugars k3 d10 k3, PS), the target mRNA inhibition was 21%.

Regarding TCATTAAGCCACTTCC (sugars k3 d10 k3, PS), the target mRNA inhibition turned out to be 19%.

Take ATATTTTAAACGGGTC (sugars k3 d10 k3, PS): the target mRNA inhibition came out at 16%.

For TCCGTAACTTTAAATT (sugars k3 d10 k3, PS), the target mRNA inhibition came out at 36%.

As to TCCCTTCAGGATCATT (sugars k3 d10 k3, PS), the target mRNA inhibition was 10%.

As to CTCTGATCTGCGGCCC (sugars k3 d10 k3, PS), the target mRNA inhibition is -6%.

In the case of TCATTACCCCAACTAA (sugars k3 d10 k3, PS), the target mRNA inhibition turned out to be 17%.

As for TGATTTTAAGGTTGCA (sugars k3 d10 k3, PS), the target mRNA inhibition was 70% and 67%.

Regarding GTGTGATAGTTCAGGG (sugars k3 d10 k3, PS), the target mRNA inhibition was 8%.

On to AGCGAGTTCAAGTGGC (sugars k3 d10 k3, PS), for which the target mRNA inhibition was 27%.

Consider ACTGGTACACCCAGTG (sugars k3 d10 k3, PS), for which the target mRNA inhibition is -8%.

On to TCCTGACAAATTATAC (sugars k3 d10 k3, PS), for which the target mRNA inhibition was 28%.

As to GATCACCTTCCGCCGC (sugars k3 d10 k3, PS), the target mRNA inhibition is 6%.

CACCCGGAAATCGGCC (sugars k3 d10 k3, PS): the target mRNA inhibition was -1%.

TCAGGATCATTAAGCC (sugars k3 d10 k3, PS): the target mRNA inhibition came out at 37%.

Turning to ACTTGAATGCAAACTA (sugars k3 d10 k3, PS), the target mRNA inhibition worked out at 11%.

As to CCGGAGCAGGAAGAAA (sugars k3 d10 k3, PS), the target mRNA inhibition worked out at 23%.

AACCACACACTACCAT (sugars k3 d10 k3, PS): the target mRNA inhibition was -7%.

With TCGGTTTAATCTCTTT (sugars k3 d10 k3, PS), the target mRNA inhibition is 63% and 73%.

Turning to CATTACAGTTCTTGAA (sugars k3 d10 k3, PS), the target mRNA inhibition is 41%.

For AATCCCTTTACACCTC (sugars k3 d10 k3, PS), the target mRNA inhibition came to 26%.

For the sequence TGCAGGGACGGTTGAG (sugars k3 d10 k3, PS), the target mRNA inhibition was -22%.

In the case of TACCTTTTACTCTGAT (sugars k3 d10 k3, PS), the target mRNA inhibition came to 42%.

As to GCCTGCTACCTTCATC (sugars k3 d10 k3, PS), the target mRNA inhibition is 36%.

Consider TCCTATCTTCACCACG (sugars k3 d10 k3, PS), for which the target mRNA inhibition stood at 40%.

As to TCATAATCTCCCACCT (sugars k3 d10 k3, PS), the target mRNA inhibition was 10%.

Regarding GTAAACCTGTGGTGGT (sugars k3 d10 k3, PS), the target mRNA inhibition was 56% and 60%.

Take GAACAAGTCCTACAAT (sugars k3 d10 k3, PS): the target mRNA inhibition is 32%.

Turning to TCTGTGTTATGCCTGG (sugars k3 d10 k3, PS), the target mRNA inhibition is 17%.

Turning to GGTTTTAATACCCTTC (sugars k3 d10 k3, PS), the target mRNA inhibition was found to be 51%.

For the sequence AAGAACTAGCACCTGC (sugars k3 d10 k3, PS), the target mRNA inhibition came out at 13%.

Regarding AATACCCTTCTGTTAA (sugars k3 d10 k3, PS), the target mRNA inhibition is 16%.

Turning to CTACAAGTTACATGTT (sugars k3 d10 k3, PS), the target mRNA inhibition is -9%.

With TGCCAACAGCACAGCG (sugars k3 d10 k3, PS), the target mRNA inhibition was found to be 1%.

Take GAGTATGCTGATAAAC (sugars k3 d10 k3, PS): the target mRNA inhibition is 37%.

As for ATCCCAACCGTAACAG (sugars k3 d10 k3, PS), the target mRNA inhibition came out at 13%.

In the case of CCTACAACACCCGGAA (sugars k3 d10 k3, PS), the target mRNA inhibition came to 0%.

Regarding TTAAAAGATCGCCTTC (sugars k3 d10 k3, PS), the target mRNA inhibition was 43%.

With CCGGAATTCGATCACC (sugars k3 d10 k3, PS), the target mRNA inhibition worked out at 9%.

As for ACTGCTTACAGATTTG (sugars k3 d10 k3, PS), the target mRNA inhibition is 61% and 64%.

Consider TTCACCAAGGAGCTGT (sugars k3 d10 k3, PS), for which the target mRNA inhibition was 37%.

For GCGCCGGGCTTCTGCG (sugars k3 d10 k3, PS), the target mRNA inhibition came to 29%.

In the case of CCACCCTCTAAGAGAC (sugars k3 d10 k3, PS), the target mRNA inhibition is -17%.

As for TTAATCATACTCCAGT (sugars k3 d10 k3, PS), the target mRNA inhibition was determined as 19%.

For TGAACCAAAGCTGCAC (sugars k3 d10 k3, PS), the target mRNA inhibition amounted to 2%.

For the sequence GCAGTAGGGCTTCTCA (sugars k3 d10 k3, PS), the target mRNA inhibition was -8%.

Consider TGGAAACCAGGAGTGC (sugars k3 d10 k3, PS), for which the target mRNA inhibition was 14%.

Take GGCAAATTAATGGCCT (sugars k3 d10 k3, PS): the target mRNA inhibition was 25%.

In the case of TATAATAGAGCTACTT (sugars k3 d10 k3, PS), the target mRNA inhibition amounted to 15%.

With CAGCTCGGGCGAGGCG (sugars k3 d10 k3, PS), the target mRNA inhibition turned out to be 13%.

In the case of AGGTATGAGCTTCAGA (sugars k3 d10 k3, PS), the target mRNA inhibition worked out at 1%.

As to AACTTGCCATCTACTA (sugars k3 d10 k3, PS), the target mRNA inhibition was -18%.

For the sequence CTCGATGGAAAAATTT (sugars k3 d10 k3, PS), the target mRNA inhibition is 8%.

For the sequence TTCACCAAATCGCACT (sugars k3 d10 k3, PS), the target mRNA inhibition is 29%.

On to CATTGCCTCTTCATTG (sugars k3 d10 k3, PS), for which the target mRNA inhibition was 36%.

Take CTACAACACCCGGAAA (sugars k3 d10 k3, PS): the target mRNA inhibition was 33%.

In the case of GCCAGTGGCCCACTCT (sugars k3 d10 k3, PS), the target mRNA inhibition was -8%.

Consider CAGTTACACATCCAAA (sugars k3 d10 k3, PS), for which the target mRNA inhibition worked out at 45%.

For the sequence CAGAAAAAGCTTGTTC (sugars k3 d10 k3, PS), the target mRNA inhibition came to 37%.

In the case of GCCATCTACTATTTCT (sugars k3 d10 k3, PS), the target mRNA inhibition came out at 38%.

In the case of GCCCCCTCAGCAGAAG (sugars k3 d10 k3, PS), the target mRNA inhibition stood at 25%.

With TTACTTGCCAACTTGG (sugars k3 d10 k3, PS), the target mRNA inhibition was 70% and 68%.

Turning to ACCTCTTAAAGCACTT (sugars k3 d10 k3, PS), the target mRNA inhibition stood at 18%.

Turning to AGACAGATTAGTAGTC (sugars k3 d10 k3, PS), the target mRNA inhibition is -8%.

Take CTAAAAGCATTGCCCT (sugars k3 d10 k3, PS): the target mRNA inhibition is 35%.

As for ACTAAAGGCTTCAGTC (sugars k3 d10 k3, PS), the target mRNA inhibition was 26%.

On to ACAACTCGCATCACCG (sugars k3 d10 k3, PS), for which the target mRNA inhibition is -212%.

For ACTCAAAGTCCAATGC (sugars k3 d10 k3, PS), the target mRNA inhibition worked out at 31%.

For CATCACCGGAATTCGA (sugars k3 d10 k3, PS), the target mRNA inhibition amounted to 2%.

As for TTCCATTACGCAACTG (sugars k3 d10 k3, PS), the target mRNA inhibition is -21%.

As to CTTCATGACCCTACTG (sugars k3 d10 k3, PS), the target mRNA inhibition came out at 36%.

Turning to ACAAAACGAATTCAGG (sugars k3 d10 k3, PS), the target mRNA inhibition worked out at 31%.

As for CTAGATTCACTGAATC (sugars k3 d10 k3, PS), the target mRNA inhibition is 7%.

Take ATGCTACTCTTCTAAG (sugars k3 d10 k3, PS): the target mRNA inhibition stood at 40%.

For the sequence CATTACGCAACTGAGC (sugars k3 d10 k3, PS), the target mRNA inhibition was -1%.

Take TACAAGTTACATGTTC (sugars k3 d10 k3, PS): the target mRNA inhibition is 20%.

Consider AAAGTAGTTCTTCGGT (sugars k3 d10 k3, PS), for which the target mRNA inhibition turned out to be 17%.

With CTCCAGCATAAAGCTG (sugars k3 d10 k3, PS), the target mRNA inhibition amounted to 12%.

ACAATTACCTAAACCC (sugars k3 d10 k3, PS): the target mRNA inhibition was 33%.

Turning to AGTCACTGGATAAGTA (sugars k3 d10 k3, PS), the target mRNA inhibition was 41%.

In the case of CTATACTTCTCCAATA (sugars k3 d10 k3, PS), the target mRNA inhibition was -13%.

In the case of GGGACGGTTGAGAAGT (sugars k3 d10 k3, PS), the target mRNA inhibition turned out to be 7%.

With AGATTTGAGCTGCAAA (sugars k3 d10 k3, PS), the target mRNA inhibition came to 11%.

For the origin of these results see the OligoGym collection.
